Experimental data taken from patent US6313171A, “Method for preventing or treating elevated blood lipid level-related diseases by administering cinnamic acid derivatives” (Korea Research Institute of Bioscience & Biotechnology, priority 1998, dated 2001).
Blank lines part the entries; values can stand above or below the compound they belong to.

What was measured:
[1] = Plasma total cholesterol and HDL-cholesterol of rats fed a high-cholesterol diet; type: in vivo, rat (Sprague-Dawley); conditions: for HDL-C/TC ratio / HDL-C (HDL-cholesterol) / TC (Total cholesterol): 0.1% in 1% cholesterol diet, six weeks; for HDL-C/TC ratio: Control 28, listed as head is [formula]; for HDL-C (HDL-cholesterol): Control 38 ± 2; for TC (Total cholesterol): Control 135 ± 6; for increase of HDL-C/TC ratio / reduction of total plasma cholesterol level: as compared with control group
Text: 40 three-week-old white Sprague-Dawley rats (Taihan laboratory animal center, Korea), each weighing about 90 to 110 g, were evenly divided into four dietary groups by a randomized block design. The rats of the four groups were fed with four different high-cholesterol diets, i.e., AIN-76 laboratory animal diet (ICN Biochemicals, Cleveland, Ohio, U.S.A.) containing 1% cholesterol (Control group); 1% cholesterol plus 0.1% 4-hydroxycinnamic acid (4-hydroxycinnamic acid group); 1% cholesterol plus 0.1% 3,4-dihydroxycinnamic acid (3,4-dihydroxycinnamic acid group); and 1% cholesterol plus 0.1% 3,4-dihydroxyhydrocinnamic acid (3,4-dihydroxyhydrocinnamic acid group), respectively.
The rats were allowed to feed freely on the specified diet together with water for six weeks, the ingestion amount was recorded daily and the rats were weighed every 7 days, and then the record was analyzed.
The effects of administering cinnamic acid derivatives to rats on the plasma cholesterol and neutral lipid contents were determined as follows.
The rats of the four dietary groups obtained in Step 1 were sacrificed and blood samples were taken therefrom. The blood was allowed to stand for 2 hours and centrifuged at 3,000 rpm for 15 minutes and the supernatant was separated and stored in a deep freezer before use. The chemical analysis of blood was carried out by employing a blood chemical analyzer (CIBA Corning 550 Express, USA) to determine the changes in total cholesterol and HDL-cholesterol levels.

ACAT = target: T1, ACAT (Rattus norvegicus, UniProt Q7TQM4); assay: ACAT assay, liver microsomes of the fed rats; type: biochemical; conditions: liver microsomes of rats fed 0.1% in 1% cholesterol diet; Control 0
T1 construct: microsomes were separated from liver tissues to be used as an enzyme source; from tissue; host or cells: rat liver microsomes
T1 sequence (Q7TQM4 1-524): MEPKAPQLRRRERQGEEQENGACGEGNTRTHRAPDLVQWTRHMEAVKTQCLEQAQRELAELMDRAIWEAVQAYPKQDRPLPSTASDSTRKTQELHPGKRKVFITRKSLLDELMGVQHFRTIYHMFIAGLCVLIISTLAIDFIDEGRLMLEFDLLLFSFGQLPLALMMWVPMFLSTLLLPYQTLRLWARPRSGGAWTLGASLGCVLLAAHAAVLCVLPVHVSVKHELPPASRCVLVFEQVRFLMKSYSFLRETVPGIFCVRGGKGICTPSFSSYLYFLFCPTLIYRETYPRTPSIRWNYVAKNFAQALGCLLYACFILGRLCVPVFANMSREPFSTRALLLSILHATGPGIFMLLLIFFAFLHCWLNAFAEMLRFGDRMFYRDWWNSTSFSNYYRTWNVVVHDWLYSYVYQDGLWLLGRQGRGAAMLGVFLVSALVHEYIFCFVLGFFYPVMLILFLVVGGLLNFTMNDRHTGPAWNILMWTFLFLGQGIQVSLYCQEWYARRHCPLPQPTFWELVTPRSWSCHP
Method: To determine the effect of feeding cinnamic acid derivatives to rats on the activity of ACAT, microsomes were separated from liver tissues to be used as an enzyme source.
1 g each of the livers taken from each group of rats of Example 2 was homogenized in 5 ml of homogenization medium (0.1 M KH2 PO4, pH 7.4, 0.1 mM EDTA and 10 mM β-mercaptoethanol). The homogenate was centrifuged at 3,000×g for 15 min. at 4° C. and the supernatant thus obtained was centrifuged at 15,000×g for 15 min. at 4° C. to obtain a supernatant. The supernatant was put into an ultracentrifuge tube (Beckman) and centrifuged at 100,000×g for 1 hour at 4° C. to obtain microsomal pellets, which were then suspended in 3 ml of the homogenization medium and centrifuged at 100,000×g for 1 hour at 4° C. The pellets thus obtained were suspended in 1 ml of the homogenization medium. The protein concentration of the resulting suspension was determined by Lowry's method and then adjusted to 4 to 8 mg/ml. The resulting suspension was stored in a deep freezer (Biofreezer, Forma Scientific Inc.).
6.67 μl of 1 mg/ml cholesterol solution in acetone was mixed with 6 μl of 10% Triton WR-1339 (Sigma Co.) in acetone and, then, acetone was removed from the mixture by evaporation under a nitrogen flow. Distilled water was added to the resulting mixture to adjust the concentration of cholesterol to […].
Added to 10 μl of the resulting aqueous cholesterol solution were 10 μl of 1 M KH2 PO4 (pH 7.4), 5 μl of 0.6 mM bovine serum albumin (BSA), 10 μl of microsome solution obtained in (Step 1) and 55 μl of distilled water (total 90 μl). The mixture was pre-incubated in a water bath at 37° C. for 30 min. […]
200 μl of the resulting supernatant was put in a scintillation bottle and 4 ml of scintillation fluid (Lumac) was added thereto. The mixture was assayed for radioactivity with 1450 Microbeta liquid scintillation counter (Wallacoy, Finland). ACAT activity was calculated as picomoles of cholesteryl oleate synthesized per min. per mg protein (pmoles/min/mg protein).

Inhibition on ACAT activity (ACAT): 7%
Compound: O=C(O)/C=C/c1ccc(O)c(O)c1 [3,4-dihydroxycinnamic acid]
HDL-C/TC ratio [1]: 33
HDL-C (HDL-cholesterol) [1]: 39 ± 3 mg/dL
TC (Total cholesterol) [1]: 118 ± 6 mg/dL
increase of HDL-C/TC ratio [1]: 18%
reduction of total plasma cholesterol level [1]: 13%

Inhibition on ACAT activity (ACAT): 20%
Compound: O=C(O)CCc1ccc(O)c(O)c1 [3,4-dihydroxyhydrocinnamic acid]
HDL-C/TC ratio [1]: 35
HDL-C (HDL-cholesterol) [1]: 45 ± 4 mg/dL
TC (Total cholesterol) [1]: 127 ± 4 mg/dL
increase of HDL-C/TC ratio [1]: 25%
reduction of total plasma cholesterol level [1]: 6%

Compound: O=C(O)/C=C/c1ccc(O)cc1 [4-Hydroxycinnamic acid, 4-hydroxycinnamic acid]
HDL-C/TC ratio [1]: 56
HDL-C (HDL-cholesterol) [1]: 57 ± 3 mg/dL
TC (Total cholesterol) [1]: 102 ± 6 mg/dL
increase of HDL-C/TC ratio [1]: 100%
reduction of total plasma cholesterol level [1]: 24%
Inhibition on ACAT activity (ACAT): 17%
